According to paper PMC5933457, “Probing biological activity through structural modelling of ligand-receptor interactions of 2,4-disubstituted thiazole retinoids” (Bioorganic & Medicinal Chemistry, 2018):
Like-named read-outs stand apart in the source and are kept apart here.

What was measured:
[1] = molecular target: T1, RARα ligand-binding domain (GST-RAR-α-LBD) (Homo sapiens, UniProt P10276); test: LanthaScreen TR-FRET RARα co-activator (receptor binding) assay; format: biochemical; settings: for binding-curve upper asymptote (coactivator recruitment), RARα: in words, Fig. 6A; for EC50: read-out: EC50 (95% confidence range) RARα
T1 construct: purchased Invitrogen
T1 sequence (P10276 183-417 limits assumed): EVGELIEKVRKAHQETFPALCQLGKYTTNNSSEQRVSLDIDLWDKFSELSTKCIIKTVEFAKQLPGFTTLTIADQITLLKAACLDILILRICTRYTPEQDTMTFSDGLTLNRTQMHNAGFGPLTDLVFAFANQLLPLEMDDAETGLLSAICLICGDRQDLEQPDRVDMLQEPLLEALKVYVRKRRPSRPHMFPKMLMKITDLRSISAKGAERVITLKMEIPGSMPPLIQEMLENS
Method: (§1) These predictions were tested through a receptor-binding assay for each RAR isotype (Fig. 6), where the assay signal is dependent on two parameters: the binding affinity of ligand to the RAR LBD, and the affinity of the coactivator for the ligand-LBD complex. For this assay, binding curves and variation in level of the upper asymptote can reflect differences in co-activator affinity for the ligand-LBD complex; variation in affinity of ligand for LBD shifts the midpoint (EC50) of the binding curve, whereas changes in the level of the upper asymptote may result from changes in coactivator affinity for the ligand-LBD complex alone, or in combination with changes in affinity for ligand with LBD.[23]
(§2) The binding interaction of each retinoid with RARα, β and γ were determined in vitro by time-resolved fluorescence resonance energy transfer (TR-FRET) using the LanthaScreen TR-FRET RARα, RARβ, and RARγ co-activator assays according to the manufacturer’s (Invitrogen™) instructions.[23] This uses a terbium-labeled anti-GST antibody, a fluorescein-labeled co activator peptide, and RARα/β/γ ligand-binding domains (LBD) that are tagged with glutathione-S-transferase (GST) in a homogenous assay format. All experiments were performed in black, 384-well low-volume plates in the dark at RT with a 4 h incubation time. The final assay volume was 20 μL and all dilutions were carried out using TR-FRET assay buffer, with a final DMSO concentration of 1%. A mixture of either 3.5 nM GST-RAR-α-LBD or 2.5 nM GST-RAR-β-LBD or 3 nM GST-RAR-γ-LBD with 62.5 nM Tb-anti GST antibody and 30 μM fluorescein-labeled peptide and retinoid or DMSO control was added to each of the wells. Each ligand assay was performed in duplicate and measured using a PHERAstar FS Microplate Reader (BMG Labtech, Ortenberg, Germany) with instrument settings as described in the manufacturer’s instructions for LanthaScreen assays. The TR-FRET signal was expressed as the ratio of the signals at 520 nm and 490 nm. The data were fitted to a three-parameter ligand-binding curve using SigmaPlot (version 12.5, Systat Software Inc., San Jose CA) and normalized to the lower asymptote of each binding curve. […] Since the assay involves interactions between ligand and LBD, and ligand-dependent interactions between the LBD and fluorescein-labeled co activator, the binding assay data were interpreted by simulating these coupled chemical reactions using the biochemical simulator COPASI version 4.3.[23], [54]
(§3) The readout of the Lanthascreen TR-FRET binding assay is based on a Forster resonance energy transfer (FRET) signal generated from the interaction between a terbium-labelled anti-glutathione-S-transferase (GST) antibody and a fluorescein-labelled coactivator peptide. The RAR ligand-binding domain (LBD) is a GST fusion protein and interaction between the LBD and the fluorescein-labelled coactivator peptide is driven by the binding of ligand to the LBD, and detected by the FRET signal from the terbium/fluorescein interaction when the terbium-labelled anti-GST binds the LBD fusion protein. The output of the assay thus relies on two binding interactions: ligand with LBD, and ligand-bound LBD with the coactivator peptide. As both interactions may be affected by the fit of ligand to the binding pocket of the LBD, we used the biochemical pathway simulator COPASI^1 to build a simple model of how the FRET signal output in the assay will vary according to differential changes in the kinetics of the two binding interactions. Reactions were modelled deterministically using mass-action kinetics described by ordinary differential equations (ODE) within COPASI.^1 This model enables us to assess the effect of different rate constants and varying ligand concentration on the formation of the final ternary complex that is the read-out from the Lanthascreen TR-FRET assay.

[2] = molecular target: T2, RARβ ligand-binding domain (GST-RAR-β-LBD) (Homo sapiens, UniProt P10826); test: LanthaScreen TR-FRET RARβ co-activator (receptor binding) assay; format: biochemical; settings: for EC50: estimated EC50, TR-FRET co-activator assay, 4 h incubation, read-out: EC50 (95% confidence range) RARβ; for binding-curve upper asymptote (coactivator recruitment), RARβ: Fig. 6B
T2 construct: purchased Invitrogen
T2 sequence (P10826 183-417 limits assumed): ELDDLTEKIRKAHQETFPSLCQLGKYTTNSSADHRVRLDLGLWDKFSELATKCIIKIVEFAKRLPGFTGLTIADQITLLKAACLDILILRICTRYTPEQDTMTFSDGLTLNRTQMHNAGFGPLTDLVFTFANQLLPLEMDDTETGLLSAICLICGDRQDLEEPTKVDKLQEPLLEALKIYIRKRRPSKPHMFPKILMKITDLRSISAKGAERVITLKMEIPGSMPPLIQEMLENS
Method: as §1, §2, §3

[3] = molecular target: T3, RARγ ligand-binding domain (GST-RAR-γ-LBD) (Homo sapiens, UniProt P13631); test: LanthaScreen TR-FRET RARγ co-activator (receptor binding) assay; format: biochemical; settings: for EC50: estimated EC50, TR-FRET co-activator assay, 4 h incubation, read-out: EC50 (95% confidence range) RARγ; for binding-curve upper asymptote (coactivator recruitment), RARγ: in words, Fig. 6C
T3 construct: purchased Invitrogen
T3 sequence (P13631 185-419 limits assumed): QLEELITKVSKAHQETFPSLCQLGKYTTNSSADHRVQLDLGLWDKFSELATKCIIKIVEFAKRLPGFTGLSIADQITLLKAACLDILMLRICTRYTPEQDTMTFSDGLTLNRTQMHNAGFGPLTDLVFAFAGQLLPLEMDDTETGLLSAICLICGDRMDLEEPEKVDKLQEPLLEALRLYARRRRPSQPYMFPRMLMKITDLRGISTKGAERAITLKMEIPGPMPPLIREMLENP
Method: as §1, §2, §3

[4] = tested on: TERA2.cl.SP12 embryonal carcinoma stem cells; test: Flow cytometry of cell-surface differentiation markers SSEA-3, TRA-1–60, A2B5; format: cell-based, human; settings: 10 μM retinoid, 7 days, compared to ATRA and control cultures, Fig. 7A
Excerpt: First, we examined neuronal differentiation in pluripotent TERA2.cl.SP12 human embryonal carcinoma stem cells in response to retinoid treatment. TERA2.cl.SP12 cells have been used in previous studies, [29] to test the ability of synthetic retinoids to induce differentiation along a neuronal or an alternative epithelial pathway at long in vitro timescales of up to three weeks. […] Since the parent carboxylic acid (GZ24) had little activity, the response to GZ22 was a real effect of the ester rather than a result of hydrolysis of the parent ester to the carboxylic acid.
The expression of specific cell surface protein markers (SSEA-3, TRA-1–60, A2B5) on TERA2.cl.SP12 was analyzed using flow cytometry as described previously.[53] Briefly, TERA2.cl.SP12 cells, 2 × 10^5 per 25 cm^2 flask, were seeded 12–24 h before treatment with 10 μM retinoid for 7 days. The primary antibodies used were SSEA-3 (diluted 1:10, University of Iowa Hybridoma Bank), TRA-1–60 (diluted 1:50, Abcam) and neural cell marker A2B5 (diluted 1:40, R&D Systems). Labeled cells were analyzed in a Guave EasyCyte Plus System (Millipore) flow cytometer and thresholds determining the numbers of positively expressing cells were set against the negative control antibody, P3X.

TERA2.cl.SP12 stem cells = test: Real-time PCR for neuronal markers NeuroD1 and PAX6; format: cell-based, human; settings: 10 μM, Fig. 7B
Method: Second, NeuroD1 and PAX6 are retinoid-induced transcription factors involved in regulating neuronal differentiation,[49], [50] and are expressed in neurons derived from TERA2.cl.SP12 stem cells.
(§4) Real time PCR was carried out immediately after treatment on both cell line lysates with 0.25% trypsin–EDTA. TERA-2.cl.SP12 cells were seeded at a density of 1 × 10^6 cells per 25 cm^2 flask, 12–24 h before treatment. […] SH-SY5Y cells were seeded at a density of 1 × 10^6 cells per 25 cm^2 flask, 12–24 h before treatment. […] Commercial RNA extraction kits (Qiagen) and reverse transcription (Applied Biosystems) kits were purchased and procedures used according to the manufacturer instructions. Real time PCR was performed using the TaqMan® Universal PCR Master Mix (Life technologies) and TaqMan® gene expression system (Applied Biosystems) based on probe sets to the specific genes to be analysed. Genecodes used are as follows: RARβ (Hs00233407_m1), CYP26-A1 (Hs00175627_m1), RARα (Hs00940448_g1), RARγ (Hs01559234_m1), PAX-6 (Hs01088112_m1), NeuroD1 (Hs01922995_s1). GADPH (Hs02758991_g1) and ACTB (Hs99999903_m1) were used as internal control genes for TERA-2.cl.SP12 and SH-SY5Y, respectively.

TERA2.cl.SP12 cells = test: Immunocytochemistry for A2B5, TUJ-1 and cytokeratin 8; format: cell-based, human
Method: Third, we carried out assessment of protein expression using immunofluorescent techniques on cultures of TERA2.cl.SP12 cells treated with retinoids.
TERA2.cl.SP12 cells were seeded at 5000 cells per well on poly-D-lysine (25 μg/ml) coated cover slips in 6-well plates. Cells were treated with each retinoid at a concentration of 10 μM for 7, 14 and 21 days (the media was changed every 3–4 days). Cells were also treated with 1% DMSO for the same time periods as a […] control. At the end of the treatment period, cells were fixed (4% para-formaldehyde in PBS for 30 min at room temperature (RT) and rinsed with PBS. One set of experiments was used for the cell surface marker A2B5 (diluted 1:100, R&D systems), and the other set was prepared for intracellular staining using 1% Triton-X-100 (Sigma Aldrich) in PBS as a permeabilizing agent for 10 min at RT. Non-specific labeling was blocked by incubation with a solution of 1% goat serum (Sigma Aldrich) containing 0.2% Tween-20 (Sigma Aldrich) in PBS for one hour at RT. The primary antibodies β-III tubulin antibody (TUJ-1) (1:200, Affymetrix eBioscience) and CK-8 antibody (1:500, Affymetrix eBioscience) were diluted in blocking solution and incubated with the cells for 1 h at RT. After washing three times for 15 min with PBS, cells were incubated for 1 h in the dark with anti-mouse FITC-conjugated secondary antibody IgM (1:128, Sigma Aldrich) for A2B5 staining, and anti-mouse Alexafluor 488 IgG (1:600, Invitrogen) for TUJ-1 and CK-8 staining. Hoechst 33,342 nuclear staining dye (1:1000, Molecular Probes) was dissolved in blocking solution after the secondary antibody staining step for nuclear staining.
Immunocytofluorescent images of fixed cells were visualized using a Leica SP5 confocal microscope. Scale bars are shown at 25 μm.

[5] = tested on: SH-SY5Y human neuroblastoma cells; test: Retinoid-induced gene expression (RARα, RARβ, RARγ, CYP26A1) by real-time PCR; format: cell-based
Method: As an additional assay of biological activity, short-term changes in expression of four genes in SH-SY5Y cells was employed; a neuroblastoma-derived lineage that undergoes neuronal differentiation in response to retinoid treatment. The four genes assayed, RARα, RARβ, RARγ and CYP26A, have RAREs associated with their promoters and may be directly regulated by retinoids.[51], [52]
as §4

| SMILES | binding-curve upper asymptote (coactivator recruitment), RARα [1] | EC50 [1] [nM] | EC50 [2] [nM] | binding-curve upper asymptote (coactivator recruitment), RARβ ([2]; in words) | RAR-type selectivity from binding assay ([2]; in words, from EC50 values of Table 1) | EC50 [3] [nM] | binding-curve upper asymptote (coactivator recruitment), RARγ [3] | proportion of cells expressing differentiation markers SSEA-3, TRA-1–60, A2B5 [4] | NeuroD1 mRNA expression, rank order (TERA2.cl.SP12 stem cells; after 5 days) | NeuroD1 mRNA expression, rank order (TERA2.cl.SP12 stem cells; after 7 days) | induction of PAX6 expression, rank order (TERA2.cl.SP12 stem cells; up to 7 days) | expression of epithelial phenotype marker cytokeratin 8 (TERA2.cl.SP12 cells; 10 μM, 1, 2 and 3 weeks, Fig. 7D) | expression of neuronal differentiation marker A2B5 (immunofluorescence) (TERA2.cl.SP12 cells; 10 μM, after 7 days, Fig. 7C) | neuronal differentiation by TUJ-1 staining (TERA2.cl.SP12 cells; 10 μM, up to 3 weeks, Fig. 7C) | induction of RARα and RARγ expression ([5]; 10 μM retinoid, over a 12 h period, Fig. 8A) | induction of RARβ expression, rank order ([5]; dose-response 1 nM to 1 μM, 8 h treatment, all doses, Fig. 8B) | induction of CYP26A1 expression, rank order ([5]; dose-response 1 nM to 1 μM, 8 h treatment, doses <1 μM, Fig. 8B) | EC50 ([1]; estimated EC50, TR-FRET co-activator assay, 4 h incubation) [nM] |
| --- | --- | --- | --- | --- | --- | --- | --- | --- | --- | --- | --- | --- | --- | --- | --- | --- | --- | --- |
| CCOC(=O)c1ccc(-c2nc(-c3ccc4c(c3)C(C)(C)CCC4(C)C)c(C)s2)cc1 [GZ23] | lower asymptotes | 88.9 | 12.1 | high asymptotes | surprising selectivity for RARβ | 847 | intermediate | very little activity | – | – | – | – | – | – | – | – | – | – |
| CC1=C(/C=C/C(C)=C/C=C/C(C)=C/C(=O)O)C(C)(C)CCC1 [ATRA, all-trans-retinoic acid, reference compound] | high curve asymptotes | – | – | – | – | – | – | – | GZ25 > GZ18 > ATRA | ATRA > GZ25 | GZ25 ≫ ATRA > GZ18 | not detectable | induced | most effective | greatest activity | GZ25 ≫ ATRA > GZ18 | GZ25 > GZ18 > ATRA | – |
| Cc1sc(-c2ccc(C(=O)O)cc2)nc1-c1ccccc1 [GZ24] | lower asymptotes | – | 77.8 | very low asymptotes | – | 109 | intermediate | very little activity | – | – | – | – | – | – | – | – | – | 77.5 |
